Experimental data as given in US7659404B2, “Broad spectrum 2-(substituted-amino)-benzothiazole sulfonamide HIV protease inhibitors” (Tibotec Pharmaceuticals Ltd., priority 2001, dated 2010).

Legend:
[1] = system: clinically isolated HIV strain K; test: Antiviral spectrum, cellular assay (fold resistance), strain K; assay type: cell-based; conditions: FR=EC50(mutant strain)/EC50(HIV-1 strain LAI)
Description: (§1) HIV- or mock-infected MT4 cells were incubated for five days in the presence of various concentrations of the inhibitor. At the end of the incubation period, all HIV-infected cells have been killed by the replicating virus in the control cultures in the absence of any inhibitor. Cell viability is measured by measuring the concentration of MTT, a yellow, water soluble tetrazolium dye that is converted to a purple, water insoluble formazan in the mitochondria of living cells only. Upon solubilization of the resulting formazan crystals with isopropanol, the absorbance of the solution is monitored at 540 nm. The values correlate directly to the number of living cells remaining in the culture at the completion of the five day incubation. The inhibitory activity of the compound was monitored on the virus-infected cells and was expressed as EC50 and EC90. These values represent the amount of the compound required to protect 50% and 90%, respectively, of the cells from the cytopathogenic effect of the virus. The toxicity of the compound was measured on the mock-infected cells and was expressed as CC50, which represents the concentration of compound required to inhibit the growth of the cells by 50%. The selectivity index (SI) (ratio CC50/EC50) is an indication of the selectivity of the anti-HIV activity of the inhibitor.
(§2) Because of the increasing emergence of drug resistant HIV strains, the present compounds were tested for their potency against clinically isolated HIV strains harboring several mutations. These mutations are associated with resistance to protease inhibitors and result in viruses that show various degrees of phenotypic cross-resistance to the currently commercially available drugs such as for instance saquinavir, ritonavir, nelfinavir, indinavir and amprenavir.
(§3) As a measure of the broad spectrum activity of the present compounds, the fold resistance (FR) defined as FR=EC50(mutant strain)/EC50(HIV-1 strain LAI).

[2] = system: clinically isolated HIV strain R; test: Antiviral spectrum, cellular assay (fold resistance), strain R; assay type: cell-based; conditions: FR=EC50(mutant strain)/EC50(HIV-1 strain LAI)
Description: as §1, §2, §3

[3] = system: clinically isolated HIV strain G; test: Antiviral spectrum, cellular assay (fold resistance), strain G; assay type: cell-based; conditions: FR=EC50(mutant strain)/EC50(HIV-1 strain LAI)
Description: as §1, §2, §3

[4] = system: clinically isolated HIV strain B; test: Antiviral spectrum, cellular assay (fold resistance), strain B; assay type: cell-based; conditions: FR=EC50(mutant strain)/EC50(HIV-1 strain LAI)
Description: as §1, §2, §3

[5] = system: clinically isolated HIV strain A; test: Antiviral spectrum, cellular assay (fold resistance), strain A; assay type: cell-based; conditions: FR=EC50(mutant strain)/EC50(HIV-1 strain LAI)
Description: as §1, §2, §3

[6] = system: clinically isolated HIV strain M; test: Antiviral spectrum, cellular assay (fold resistance), strain M; assay type: cell-based; conditions: FR=EC50(mutant strain)/EC50(HIV-1 strain LAI)
Description: as §1, §2, §3

[7] = system: clinically isolated HIV strain E; test: Antiviral spectrum, cellular assay (fold resistance), strain E; assay type: cell-based; conditions: FR=EC50(mutant strain)/EC50(HIV-1 strain LAI)
Description: as §1, §2, §3

[8] = system: clinically isolated HIV strain D; test: Antiviral spectrum, cellular assay (fold resistance), strain D; assay type: cell-based; conditions: FR=EC50(mutant strain)/EC50(HIV-1 strain LAI)
Description: as §1, §2, §3

[9] = system: clinically isolated HIV strain N; test: Antiviral spectrum, cellular assay (fold resistance), strain N; assay type: cell-based; conditions: FR=EC50(mutant strain)/EC50(HIV-1 strain LAI)
Description: as §1, §2, §3

[10] = system: clinically isolated HIV strain P; test: Antiviral spectrum, cellular assay (fold resistance), strain P; assay type: cell-based; conditions: FR=EC50(mutant strain)/EC50(HIV-1 strain LAI)
Description: as §1, §2, §3

[11] = system: clinically isolated HIV strain Q; test: Antiviral spectrum, cellular assay (fold resistance), strain Q; assay type: cell-based; conditions: FR=EC50(mutant strain)/EC50(HIV-1 strain LAI)
Description: as §1, §2, §3

virus strain S (R13080) = test: microbe, parasite or virus in culture; assay type: cell-based, HIV; conditions: FR=EC50(mutant strain)/EC50(HIV-1 strain LAI); strain S
Method in brief: (§4)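 Anti-HIV activity against multiply mutated clinical isolates is measured in MT4 cells over a five-day incubation, using MTT viability (540 nm) as a proxy for protection from viral cytopathicity. Values are reported as EC50 or as fold change versus the LAI reference strain.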

virus strain F (R13025) = test: microbe, parasite or virus in culture; assay type: cell-based, HIV; conditions: FR=EC50(mutant strain)/EC50(HIV-1 strain LAI); strain F
Method in brief: as §4

[12] = system: clinically isolated HIV strain L; test: Antiviral spectrum, cellular assay (fold resistance), strain L; assay type: cell-based; conditions: FR=EC50(mutant strain)/EC50(HIV-1 strain LAI)
Description: as §1, §2, §3

[13] = system: clinically isolated HIV strain C; test: Antiviral spectrum, cellular assay (fold resistance), strain C; assay type: cell-based; conditions: FR=EC50(mutant strain)/EC50(HIV-1 strain LAI)
Description: as §1, §2, §3

[14] = system: clinically isolated HIV strain I; assay type: cell-based; conditions: FR=EC50(mutant strain)/EC50(HIV-1 strain LAI)
Method in brief: as §4

[15] = system: clinically isolated HIV strain T; assay type: cell-based; conditions: FR=EC50(mutant strain)/EC50(HIV-1 strain LAI)
Method in brief: as §4

[16] = system: clinically isolated HIV strain J; assay type: cell-based; conditions: FR=EC50(mutant strain)/EC50(HIV-1 strain LAI)
Method in brief: as §4

[17] = system: clinically isolated HIV strain O; assay type: cell-based; conditions: FR=EC50(mutant strain)/EC50(HIV-1 strain LAI)
Method in brief: as §4

[18] = system: clinically isolated HIV strain H; assay type: cell-based; conditions: FR=EC50(mutant strain)/EC50(HIV-1 strain LAI)
Method in brief: as §4

Row | SMILES | fold resistance (FR), strain K [1] | fold resistance (FR), strain R [2] | fold resistance (FR), strain G [3] | fold resistance (FR), strain B [4] | fold resistance (FR), strain A [5] | fold resistance (FR), strain M [6] | fold resistance (FR), strain E [7] | fold resistance (FR), strain D [8] | fold resistance (FR), strain N [9] | fold resistance (FR), strain P [10] | fold resistance (FR), strain Q [11] | fold resistance (FR), strain S (virus strain S (R13080)) | fold resistance (FR), strain F (virus strain F (R13025)) | fold resistance (FR), strain L [12] | fold resistance (FR), strain C [13] | fold resistance (FR), strain I [14] | fold resistance (FR), strain T [15] | fold resistance (FR), strain J [16] | fold resistance (FR), strain O [17] | fold resistance (FR), strain H [18]
1 | CC(C)CN(CC(O)C(Cc1ccccc1)NC(=O)OC1COC2OCCC12)S(=O)(=O)c1ccc2nc(NC(=O)CN3CCCC3)sc2c1 (mixture of isomers) [Compound 7] | 0.3 | 0.4 | 0.2 | 0.3 | 0.2 | 0.1 | 0.3 | 0.5 | 0.5 | 0.1 | 0.4 | 2.0 | 0.5 | 0.1 | 0.5 | 0.5 | 12.4 | 0.4 | 0.4 | 0.5
2 | CC(C)CN(C[C@@H](O)[C@H](Cc1ccccc1)NC(=O)O[C@H]1CO[C@H]2OCC[C@H]21)S(=O)(=O)c1ccc2nc(NC(=O)CN3CCCC3)sc2c1.O=C(O)C(=O)O [Compound 15] | 0.3 | 0.2 | 0.3 | 0.2 | 0.3 | 0.2 | 0.3 | 0.3 | 0.4 | 0.1 | 0.2 | 0.8 | 0.5 | 0.1 | 0.3 | 0.3 | 7.2 | 0.3 | 0.2 | 0.5
3 | Cc1cccc(C)c1OCC(=O)N[C@@H](Cc1ccccc1)[C@H](O)CN(CC(C)C)S(=O)(=O)c1ccc2nc(NC(=O)CN3CCCC3)sc2c1 [Compound 37] | 0.5 | 1.5 | 1.3 | 1.9 | 6.1 | 5.0 | 1.6 | 1.4 | 1.4 | 0.3 | 3.8 | 10.0 | 6.1 | 2.1 | 3.8 | 6.8 | 185.8 | 5.0 | 7.3 | 4.1
4 | CC(=O)N(C)c1nc2ccc(S(=O)(=O)N(CC(C)C)CC(O)C(Cc3ccccc3)NC(=O)OC3COC4OCCC34)cc2s1 (mixture of isomers) [Compound 9] | 1.0 | 1.2 | 1.5 | 1.5 | 1.5 | 0.5 | 2.3 | 5.7 | 1.5 | 0.2 | 1.8 | 29.3 | 13.0 | 0.7 | 1.6 | 2.3 | 550.9 | 6.2 | 3.7 | 6.7
